Results published in patent publication US20120122848A1, “(+)-3-HYDROXYMORPHINAN DERIVATIVES AS NEUROPROTECTANTS” (GREEN CROSS CORPORATION, priority 2009, published 2012).
Structures can show the parent of a compound that is named as a salt.

Legend:
[1] = Cell cytotoxicity test: protection of HT22 cells against glutamate toxicity (EC50) and cytotoxicity of the compounds (CC50), MTT; assay type: cell-based, mouse; conditions: mouse, HT22 cells (mouse hippocampal neuron)
Protocol: (§1) HT22 cells (mouse hippocampal neuron, Salk Institute and KRIBB) were plated in a 96-well plate at a density of 3×10^3 cells/well for 16 hrs before treatment. The cells were treated with five millimolar glutamate and various concentrations of the inventive compounds and incubated for 24 hrs in a growth media (DMEM with 10% FBS and 1% penicillin streptomycin). Then, the cells were treated with 3-(4,5-dimethylthiazol-2-yl)-2,5-diphenyltetrazolium bromide (MTT, Sigma®) for 4 hrs and absorbance of each well was measured with a plate reader at a wavelength of 450 nm. [Da-Qing, et. al., Anti-oxidant and anti-inflammatory activities of macelignan in murine hippocampal cell line and primary culture of rat microglia cells, BBRC, 2005, 331, 1264-1269].
(§2) In Table 1, EC50 is neuroprotective effect against glutamate toxicity and CC50 is cytotoxicity of the compounds. The EC50 values were statistically analyzed using Prizm® (GraphPad Software Inc., San Diego, Calif., USA).

[2] = tested on: HT22 cells (mouse hippocampal neuron); assay: as above; assay type: cell-based; conditions: Mus musculus, HT-22, five millimolar glutamate, 24 hrs, read-out: EC50 (neuroprotective effect against glutamate toxicity)
Protocol: as §1, §2

For `Oc1cc2c(cc1NCCC(F)(F)F)C[C@@H]1NCC[C@]23CCCC[C@H]13` [Example 97, (+)-3-Hydroxy-2-(3-trifluoropropylamino)morphinan TFA salt], the CC50 at 24 h [1] was 67 µM and the EC50 [2] was 0.183 µM.

In the case of `Oc1cc2c(cc1Nc1ccc(Cl)cc1)C[C@@H]1NCC[C@]23CCCC[C@H]13` [Example 25, (+)-2-(4-Chlorophenylamino)-3-hydroxymorphinan TFA salt], the CC50 at 24 h [1] is reported as 1.87 µM and the EC50 [2] is reported as 0.061 µM.

In the case of `CCOC(=O)Nc1ccccc1Nc1cc2c(cc1O)[C@]13CCCC[C@@H]1[C@H](C2)NCC3` [Example 117, (+)-2-(2-(Ethoxycarbonylamino)phenylamino)-3-hydroxymorphinan TFA salt], the CC50 at 24 h [1] is reported as 36.5 µM and the EC50 [2] is reported as 1.08 µM.

Compound `Nc1ccc(Nc2cc3c(cc2O)[C@]24CCCC[C@@H]2[C@H](C3)NCC4)cc1` [Example 32, (+)-2-(4-Aminophenyamino)-3-hydroxymorphinan TFA salt] has a CC50 at 24 h [1] of 14.1 µM and an EC50 [2] of 0.0431 µM.

With `Oc1cc2c(cc1Nc1ccccc1F)C[C@@H]1NCC[C@]23CCCC[C@H]13` [Example 38, (+)-2-(2-Fluorophenylamino)-3-hydroxymorphinan TFA salt] the CC50 at 24 h [1] was 11.8 µM and the EC50 [2] was 0.211 µM.

With `O=C(Nc1ccccc1)Nc1ccccc1Nc1cc2c(cc1O)[C@]13CCCC[C@@H]1[C@H](C2)NCC3` [Example 122, (+)-3-Hydroxy-2-(2-(phenylureido)phenylamino)morphinan TFA salt] the CC50 at 24 h [1] was 33.8 µM and the EC50 [2] was 3.7 µM.

Work on `Oc1cc2c(cc1-c1ccc(F)cc1)C[C@@H]1NCC[C@]23CCCC[C@H]13` [Example 77, (+)-2-(4-Fluorophenyl)-3-hydroxymorphinan TFA salt] yielded a CC50 at 24 h [1] of 8.3 µM and an EC50 [2] of 3.11 µM.

`Oc1cccc(Nc2cc3c(cc2O)[C@]24CCCC[C@@H]2[C@H](C3)NCC4)c1` [Example 44, (+)-3-Hydroxy-2-(3-hydroxyphenylamino)morphinan TFA salt] gave a CC50 at 24 h [1] of 75 µM and an EC50 [2] of 0.802 µM.

Compound `Oc1cc2c(cc1Nc1ccc(C(F)(F)F)cc1)C[C@@H]1NCC[C@]23CCCC[C@H]13` [Example 35, (+)-3-Hydroxy-2-(4-(trifluoromethyl)phenylamino)morphinan TFA salt] has a CC50 at 24 h [1] of 52.8 µM and an EC50 [2] of 2.59 µM.

For `O=S(=O)(Nc1ccccc1Nc1cc2c(cc1O)[C@]13CCCC[C@@H]1[C@H](C2)NCC3)c1ccccc1` [Example 113, (+)-2-(2-(Benzenesulfonamido)phenylamino)-3-hydroxymorphinan TFA salt], the CC50 at 24 h [1] was 3.01 µM and the EC50 [2] was 0.0272 µM.

`Oc1ccc(F)cc1Nc1cc2c(cc1O)[C@]13CCCC[C@@H]1[C@H](C2)NCC3` [Example 56, (+)-2-(5-Fluoro-2-hydroxyphenylamino)-3-hydroxymorphinan TFA salt] showed a CC50 at 24 h [1] of 12.6 µM and an EC50 [2] of 0.354 µM.

In the case of `Oc1ccc(Nc2cc3c(cc2O)[C@]24CCCC[C@@H]2[C@H](C3)NCC4)c(O)c1` [Example 45, (+)-2-(2,4-Dihydroxyphenylamino)-3-hydroxymorphinan TFA salt], the CC50 at 24 h [1] is reported as 40.9 µM and the EC50 [2] is reported as 0.0731 µM.

With `Cc1c2c(cc(O)c1Nc1ccccc1NS(C)(=O)=O)[C@]13CCCC[C@@H]1[C@H](C2)NCC3` [Example 134, (+)-3-Hydroxy-2-(2-(methanesulfonamido)phenylamino)-1-methylmorphinan TFA salt] the CC50 at 24 h [1] was 53.2 µM and the EC50 [2] was 0.153 µM.

In the case of `CC(=O)Nc1ccc(Nc2cc3c(cc2O)[C@]24CCCC[C@@H]2[C@H](C3)NCC4)cc1` [Example 116, TFA salt], the CC50 at 24 h [1] is reported as 36.5 µM and the EC50 [2] is reported as 2.84 µM.

With `Oc1cc2c(cc1NC1CCCC1)C[C@@H]1NCC[C@]23CCCC[C@H]13` [Example 92, (+)-2-Cyclopentylamino-3-hydroxymorphinan TFA salt] the CC50 at 24 h [1] was 378 µM and the EC50 [2] was 0.0927 µM.

Work on `Oc1cc2c(cc1Nc1ccccc1-c1ccccc1)C[C@@H]1NCC[C@]23CCCC[C@H]13` [Example 60, (+)-2-(Biphenyl-2-ylamino)-3-hydroxymorphinan TFA salt] yielded a CC50 at 24 h [1] of 1.4 µM and an EC50 [2] of 0.019 µM.

In the case of `CCN(CC)c1ccccc1Nc1cc2c(cc1O)[C@]13CCCC[C@@H]1[C@H](C2)NCC3` [Example 129, (+)-2-(2-(Diethylamino)phenylamino)-3-hydroxymorphinan TFA salt], the CC50 at 24 h [1] is reported as 1.6 µM and the EC50 [2] is reported as 0.0439 µM.

For `Oc1cc2c(cc1Nc1cccc(F)c1O)C[C@@H]1NCC[C@]23CCCC[C@H]13` [Example 57, (+)-2-(3-Fluoro-2-hydroxyphenylamino)-3-hydroxymorphinan TFA salt], the CC50 at 24 h [1] was 5.5 µM and the EC50 [2] was 0.199 µM.

`Oc1cc2c(cc1Sc1ccccc1)C[C@@H]1NCC[C@]23CCCC[C@H]13` [Example 73, (+)-3-Hydroxy-2-phenylthiomorphinan TFA salt] showed a CC50 at 24 h [1] of 5.57 µM and an EC50 [2] of 1.67 µM.

`CN(C)c1ccccc1Nc1cc2c(cc1O)[C@]13CCCC[C@@H]1[C@H](C2)NCC3` [Example 126, (+)-2-(2-(Dimethylamino)phenylamino)-3-hydroxymorphinan TFA salt] gave a CC50 at 24 h [1] of 6.1 µM and an EC50 [2] of 0.0121 µM.

`CC1CCN(c2cc3c(cc2O)[C@]24CCCC[C@@H]2[C@H](C3)NCC4)CC1` [Example 19, (+)-3-Hydroxy-2-(4-methylpiperidin-1-yl)morphinan TFA salt] gave a CC50 at 24 h [1] of 8.04 µM and an EC50 [2] of 0.272 µM.

In the case of `CCNc1cc2c(cc1O)[C@]13CCCC[C@@H]1[C@H](C2)NCC3` [Example 23, (+)-2-Ethylamino-3-hydroxymorphinan TFA salt], the CC50 at 24 h [1] is reported as 49.1 µM and the EC50 [2] is reported as 1.1 µM.

`CCNC(=O)Nc1ccccc1Nc1cc2c(cc1O)[C@]13CCCC[C@@H]1[C@H](C2)NCC3` [Example 120, (+)-2-(2-(Ethylureido)phenylamino)-3-hydroxymorphinan TFA salt] gave a CC50 at 24 h [1] of 36.5 µM and an EC50 [2] of 8.85 µM.

Compound `CC(C)(C)c1cc2c(cc1O)[C@]13CCCC[C@@H]1[C@H](C2)NCC3` [Example 104, (+)-2-tert-Butyl-3-hydroxymorphinan TFA salt] has a CC50 at 24 h [1] of 10 µM and an EC50 [2] of 1.37 µM.

`Oc1ccccc1Nc1cc2c(cc1O)[C@]13CCCC[C@@H]1[C@H](C2)NCC3` [Example 43, (+)-3-Hydroxy-2-(2-hydroxyphenylamino)morphinan TFA salt] showed a CC50 at 24 h [1] of 10.4 µM and an EC50 [2] of 0.00271 µM.

In the case of `CCc1ccc(Nc2cc3c(cc2O)[C@]24CCCC[C@@H]2[C@H](C3)NCC4)cc1` [Example 53, (+)-2-(4-Ethylphenylamino)-3-hydroxymorphinan TFA salt], the CC50 at 24 h [1] is reported as 1.6 µM and the EC50 [2] is reported as 0.0402 µM.

`Oc1cc2c(cc1NC1CCCCCC1)C[C@@H]1NCC[C@]23CCCC[C@H]13` [Example 94, (+)-2-Cycloheptylamino-3-hydroxymorphinan TFA salt] gave a CC50 at 24 h [1] of 7.55 µM and an EC50 [2] of 0.102 µM.

Work on `CCNc1ccccc1Nc1cc2c(cc1O)[C@]13CCCC[C@@H]1[C@H](C2)NCC3` [Example 130, (+)-2-(2-(Ethylamino)phenylamino)-3-hydroxymorphinan TFA salt] yielded a CC50 at 24 h [1] of 1.6 µM and an EC50 [2] of 0.0112 µM.

In the case of `Oc1cc2c(cc1N1CCCCCC1)C[C@@H]1NCC[C@]23CCCC[C@H]13` [Example 17, (+)-2-(Azepan-1-yl)-3-hydroxymorphinan TFA salt], the CC50 at 24 h [1] is reported as 12.2 µM and the EC50 [2] is reported as 0.579 µM.

With `Cc1cc(C)cc(Nc2cc3c(cc2O)[C@]24CCCC[C@@H]2[C@H](C3)NCC4)c1` [Example 27, (+)-2-(3,5-Dimethylphenylamino)-3-hydroxymorphinan TFA salt] the CC50 at 24 h [1] was 1.52 µM and the EC50 [2] was 0.0273 µM.

`CCN(C)c1ccccc1Nc1cc2c(cc1O)[C@]13CCCC[C@@H]1[C@H](C2)NCC3` [Example 131, (+)-2-(2-(Ethyl(methyl)amino)phenylamino)-3-hydroxymorphinan TFA salt] showed a CC50 at 24 h [1] of 1.5 µM and an EC50 [2] of 0.0177 µM.

With `CCCc1cc2c(cc1O)[C@]13CCCC[C@@H]1[C@H](C2)NCC3` [Example 82, (+)-3-Hydroxy-2-propylmorphinan TFA salt] the CC50 at 24 h [1] was 28.2 µM and the EC50 [2] was 1.02 µM.

Compound `CNc1cc2c(cc1O)[C@]13CCCC[C@@H]1[C@H](C2)NCC3` [Example 18, (+)-3-Hydroxy-2-(methylamino)morphinan TFA salt] has a CC50 at 24 h [1] of 59 µM and an EC50 [2] of 0.193 µM.

In the case of `CC(C)Nc1cc2c(cc1O)[C@]13CCCC[C@@H]1[C@H](C2)NCC3` [Example 87, (+)-3-Hydroxy-2-isopropylaminomorphinan TFA salt], the CC50 at 24 h [1] is reported as 39.5 µM and the EC50 [2] is reported as 0.0354 µM.

With `CCCNc1cc2c(cc1O)[C@]13CCCC[C@@H]1[C@H](C2)NCC3` [Example 88, (+)-3-Hydroxy-2-propylaminomorphinan TFA salt] the CC50 at 24 h [1] was 37.2 µM and the EC50 [2] was 0.0416 µM.

Work on `CC(Nc1cc2c(cc1O)[C@]13CCCC[C@@H]1[C@H](C2)NCC3)c1ccccc1` (stereo partly drawn) [Example 91, (+)-3-Hydroxy-2-(1-phenylethylamino)morphinan TFA salt] yielded a CC50 at 24 h [1] of 15 µM and an EC50 [2] of 0.0813 µM.

In the case of `COc1ccc(Nc2cc3c(cc2O)[C@]24CCCC[C@@H]2[C@H](C3)NCC4)cc1` [Example 31, (+)-3-Hydroxy-2-(4-methoxyphenylamino)morphinan TFA salt], the CC50 at 24 h [1] is reported as 7.5 µM and the EC50 [2] is reported as 0.0404 µM.

For `Oc1cc2c(cc1NC1CCCCC1)C[C@@H]1NCC[C@]23CCCC[C@H]13` [Example 93, (+)-2-Cyclohexylamino-3-hydroxymorphinan TFA salt], the CC50 at 24 h [1] was 13.8 µM and the EC50 [2] was 0.0986 µM.

In the case of `COc1ccc(Nc2cc3c(cc2O)[C@]24CCCC[C@@H]2[C@H](C3)NCC4)c(OC)c1` [Example 40, (+)-2-(2,4-Dimethoxyphenylamino)-3-hydroxymorphinan TFA salt], the CC50 at 24 h [1] is reported as 7.2 µM and the EC50 [2] is reported as 0.033 µM.
